Experimental data published in patent US20110009351A1, “SCREENING ASSAY TO IDENTIFY CORRECTORS OF PROTEIN TRAFFICKING DEFECTS” (Traffick Therepeutics Inc., priority 2007, published 2011).
Structures can show the parent of a compound that is named as a salt. Where two headings read alike, the source gives them in different places.

Columns and labels:
F508del CFTR = target: T1, F508del CFTR (Homo sapiens, UniProt P13569, DEL508-508); assay: YFP fluorescence quenching functional assay (iodide influx), HEK293 cells with F508del CFTR and halide sensitive YFP; type: cell-based; conditions: for remaining activity at 10 µM: read-out: % YFP quench
T1 construct: expressed in transfected cells; host or cells: HEK293 Griptite cells stably expressing F508del CFTR, transiently transfected with halide-sensitive eYFP
Protocol: In addition to the MDS compounds, the 1120 Prestwick Library compounds were screened. (See FIGS. 7 to 12.) Of the compounds, one qualified as a “strong” hit, 3 as “medium” hits and 57 as “weak” hits. The Z score for the assay was 0.62. The top 50 hits were further tested in a counter screen in which the halide sensitive fluorescent compound (YFP) was expressed inside cells (Table 2). After incubation with the test compounds the ability of the cells to uptake iodide was measure by decreasing YFP fluorescence. In these cells this can only occur if functional CFTR is present at the cell surface (FIG. 7). The hits were also tested for the appearance of the Band C form of CFTR. […] The functionality of the compounds was further studied by the use of Iodide efflux assays for each compound in both BHK and the more physiologically relevant CFBE cells. […] FIG. 10 is a table of results for the 15 hit compounds which summarizes many experiments. […] The results for the best 15 compounds from the Prestwick Library, or “Prestwick 15”, are shown FIGS. 8, 9 and 10.
Strongly adhesive Human […] Kidney cells stably expressing both the human macrophage scavenger receptor (HEK293 Griptite, Invitrogen) and F508del CFTR were plated in 96-well plates and transiently transfected with pcDNA3 plasmid encoding a halide sensitive variant of eYFP. After 24-48 h later cells were exposed to 10 μM test compound in triplicate and incubated for an additional 24 h. Cells were stimulated for 20 minutes with a in a buffer containing 25 μM forskolin, 45 μM IBMX and 50 μM genistein final concentration. The high content screening assay was performed using a Cellomics platform. Iodide was added robotically to a final concentration of 50 mM and the resulting decrease in fluorescence was measured. Images were taken at time 0 and stored for subsequent use when calculating a mask so that only those cells that express YFP at time 0 are measured. The quenching was detected in 15 images taken over the course of an experiment lasting 40 seconds. Each test compound was compared to the following two controls: a negative control without drugs to assess photobleaching that may occur when the same field of view is repeatedly imaged, and a positive control with cells treated with a known potentiator. Results were generated from 150-300 cells per well.

ΔF508-CFTR = ΔF508-CFTR (Homo sapiens, UniProt P13569, DEL508-508); type: cell-based; set-up: which was then ligated into full length pNUT-CFTR linearized using Hpa1 and Pml1; expressed in transfected cells; conditions: for hit in screen (class letter): BHK cells
Protocol: BHK cells expressing 3HA-tagged ΔF508-CFTR between passages 5-8 were seeded in 96-well plates (Corning half area, black-sided, clear bottom) at 15,000 cells per well and incubated with culture medium for 24 h at 37° C. Each well was then treated with a different test compound (80 compounds per plate) for 24 h at 20 μM final concentration. The remaining 16 wells on each plate were used for control conditions. […] Cells were fixed in a 4% paraformaldehyde solution, washed with PBS, and blocked with PBS containing 5% fetal bovine serum (FBS) for 1 hat 4° C.
Blocking solution was replaced with 15 μl of primary antibody solution containing 1% FBS and mouse monoclonal anti-HA antibody (1:150 dilution, Sigma) in PBS. The plates were sealed and left at 4° C. overnight. After three washes with 100 μl PBS, cells were incubated for 1 h with 15 μl of secondary antibody solution containing 1% FBS and anti-mouse IgG conjugated with FITC (1:100 dilution, Sigma) in PBS. Cells were again washed three times with 100 μl of PBS and analyzed in a plate reader (Analyst™ HT96.384, Biosystems; 488 nm excitation/510 nm emission). […] The mean fluorescence of four untreated wells was used as the background signal when calculating deviations of the 80 compound-treated wells. Hits were then cherry-picked into reservoir plates and re-tested in duplicate using the same assay.
BHK cells expressing ΔF508-CFTR were incubated with test compounds (20 μM) for 24 hours at 37° C. in a 96 well format. Plasma membrane expression of ΔF508-CFTR was then assayed by immunofluorescence using a primary antibody directed against the inserted 3HA tag and a secondary antibody conjugated with a fluorophore (FITC). […] The positive compounds were selected and retested in duplicate to obtain an N of 3. At the re-screening stage, the intrinsic fluorescence of each potential hit was also measured and the fluorescent ones were not considered further.
Screening was performed using BHK cells that stably express F508-CFTR bearing three tandem haemagglutinin-epitope tags (3HA) and linker sequences in the fourth extracellular loop after amino acid 901 (Howard et al., 1995; Carlile et al., 2007; Robert et al., 2008). […] Screening was performed using the Prestwick Chemical Library of 1120 high-purity compounds.

[1] = 10 μM, 24 h, nc = 100% pc = 69.2
[2] = Prestwick library, initial corrector assay
[3] = Prestwick library, initial corrector assay, standard deviations above untreated controls
[4] = HEK293, 10 μM, 24 h, nc = 100% pc = 69.2

ΔF508-CFTR, sequence (P13569 with tags, fused parts or gaps DEL508-508): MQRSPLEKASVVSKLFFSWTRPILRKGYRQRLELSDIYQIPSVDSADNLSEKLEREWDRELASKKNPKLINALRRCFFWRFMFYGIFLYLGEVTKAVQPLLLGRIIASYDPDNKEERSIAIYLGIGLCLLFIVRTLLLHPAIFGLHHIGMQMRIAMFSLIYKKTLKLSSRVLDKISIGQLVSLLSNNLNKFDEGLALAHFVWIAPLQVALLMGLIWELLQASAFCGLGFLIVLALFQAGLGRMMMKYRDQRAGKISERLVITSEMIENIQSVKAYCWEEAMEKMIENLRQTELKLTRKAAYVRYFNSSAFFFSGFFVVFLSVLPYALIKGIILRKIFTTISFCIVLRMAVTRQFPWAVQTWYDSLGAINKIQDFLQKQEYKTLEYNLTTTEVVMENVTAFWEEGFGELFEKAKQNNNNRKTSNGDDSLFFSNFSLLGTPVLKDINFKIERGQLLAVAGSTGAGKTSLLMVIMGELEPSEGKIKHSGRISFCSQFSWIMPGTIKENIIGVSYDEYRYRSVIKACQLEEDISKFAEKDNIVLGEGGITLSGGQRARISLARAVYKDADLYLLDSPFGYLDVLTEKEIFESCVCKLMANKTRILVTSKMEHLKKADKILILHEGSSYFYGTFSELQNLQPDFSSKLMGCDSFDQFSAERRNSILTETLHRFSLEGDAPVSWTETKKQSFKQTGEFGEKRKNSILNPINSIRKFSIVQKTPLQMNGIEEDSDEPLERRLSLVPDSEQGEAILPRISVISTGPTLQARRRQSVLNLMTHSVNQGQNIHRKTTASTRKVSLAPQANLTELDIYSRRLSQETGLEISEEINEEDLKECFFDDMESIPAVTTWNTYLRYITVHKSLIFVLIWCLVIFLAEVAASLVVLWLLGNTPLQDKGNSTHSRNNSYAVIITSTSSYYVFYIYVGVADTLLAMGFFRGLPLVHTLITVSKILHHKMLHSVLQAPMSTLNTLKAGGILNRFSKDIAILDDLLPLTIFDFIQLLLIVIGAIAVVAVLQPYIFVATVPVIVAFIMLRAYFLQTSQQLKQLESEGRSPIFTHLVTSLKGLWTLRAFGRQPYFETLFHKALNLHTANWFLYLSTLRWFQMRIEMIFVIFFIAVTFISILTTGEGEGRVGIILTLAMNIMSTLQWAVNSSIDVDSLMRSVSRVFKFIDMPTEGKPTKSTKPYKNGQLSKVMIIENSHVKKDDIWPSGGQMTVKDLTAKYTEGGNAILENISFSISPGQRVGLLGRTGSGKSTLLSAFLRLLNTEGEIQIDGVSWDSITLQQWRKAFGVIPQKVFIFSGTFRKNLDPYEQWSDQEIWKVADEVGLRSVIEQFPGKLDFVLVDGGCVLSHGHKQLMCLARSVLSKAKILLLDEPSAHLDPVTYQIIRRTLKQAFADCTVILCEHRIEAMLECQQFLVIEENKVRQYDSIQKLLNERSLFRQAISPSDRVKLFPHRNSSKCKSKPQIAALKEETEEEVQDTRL
T1 sequence (P13569 with tags, fused parts or gaps DEL508-508): as above

Molecule | % YFP quench (F508del CFTR; [1]) [%] | hit in screen (class letter) (ΔF508-CFTR; [2]) | hit in screen (score) (ΔF508-CFTR; [3]) | remaining activity at 10 µM (F508del CFTR; [4]) [%] | remaining activity at 10 µM (F508del CFTR; HEK293, 24 h) [%] | hit in screen (score) (ΔF508-CFTR) | signal in the trafficking assay (ΔF508-CFTR) | functional correction in YFP quenching assay (F508del CFTR; 10 μM, 24 h)
Cc1cc(N)c2ccccc2[n+]1CCCCCCCCCC[n+]1c(C)cc(N)c2ccccc21.[Cl-].[Cl-] [Dequalinlum dichloride] | 102 | M (Medium and weak hits were defined as compounds giving a cell fluorescence signal that was between 2 and 3 or 1 and 2 standard deviations, respectively, above untreated control wells) | 2.2 |  |  |  |  | 
CC1=CC(=O)C2=C(C)C[C@H](O)[C@@H]3[C@H](OC(=O)[C@H]3C)[C@H]12 [Austricine hydrate] |  | W (Medium and weak hits were defined as compounds giving a cell fluorescence signal that was between 2 and 3 or 1 and 2 standard deviations, respectively, above untreated control wells) | 1.1 | 91 |  |  |  | 
C[N+](C)(C)CCCCCC[N+](C)(C)C.O.O.[Br-].[Br-] [Hexamethonium dibromide dihydrate] | 98 | W (Medium and weak hits were defined as compounds giving a cell fluorescence signal that was between 2 and 3 or 1 and 2 standard deviations, respectively, above untreated control wells) | 1.1 |  |  |  |  | 
Oubinidine | 104 | W (Medium and weak hits were defined as compounds giving a cell fluorescence signal that was between 2 and 3 or 1 and 2 standard deviations, respectively, above untreated control wells) | 1.2 |  |  |  |  | 
COC1=CC(=O)O[C@@H](/C=C/c2ccccc2)C1 [Kawain] |  | W (Medium and weak hits were defined as compounds giving a cell fluorescence signal that was between 2 and 3 or 1 and 2 standard deviations, respectively, above untreated control wells) | 1.1 | 111 |  |  |  | 
Cc1scc2c1N(C(=O)CN1CCN(C)CC1)c1ccccc1NC2=O [Telenzepine dihydrochloride] |  | W (Medium and weak hits were defined as compounds giving a cell fluorescence signal that was between 2 and 3 or 1 and 2 standard deviations, respectively, above untreated control wells) | 1.3 | 85 |  |  |  | 
N[C@H]1CONC1=O [(S)-(−)-Cycloserine] | 98 | W (Medium and weak hits were defined as compounds giving a cell fluorescence signal that was between 2 and 3 or 1 and 2 standard deviations, respectively, above untreated control wells) | 1.4 |  |  |  |  | 
C[C@]12CCC(=O)C=C1CC[C@@H]1[C@@H]2[C@@H](O)C[C@@]2(C)[C@H]1CC[C@]2(O)C(=O)CO [Hydrocortisone base] | 94 | W (Medium and weak hits were defined as compounds giving a cell fluorescence signal that was between 2 and 3 or 1 and 2 standard deviations, respectively, above untreated control wells) | 1.1 |  |  |  |  | 
c1ccc2[nH]c(-c3cscn3)nc2c1 [Tiabendazole] |  | W (Medium and weak hits were defined as compounds giving a cell fluorescence signal that was between 2 and 3 or 1 and 2 standard deviations, respectively, above untreated control wells) | 1.0 | 907 |  |  |  | 
C[C@]12CC[C@H](O)C[C@@H]1CC[C@@H]1[C@@H]2CC[C@]2(C)C(=O)CC[C@@H]12 [Epiandrosterone] |  |  |  |  | 93 | W 1.0 | consistently elevated signal | 
CN(Cc1cnc2nc(N)nc(N)c2n1)c1ccc(C(=O)N[C@@H](CCC(=O)O)C(=O)O)cc1 (racemic) [Amethopterin (R, S)] | 109 | W (Medium and weak hits were defined as compounds giving a cell fluorescence signal that was between 2 and 3 or 1 and 2 standard deviations, respectively, above untreated control wells) | 1.2 |  |  |  |  | 
Terbutaline hemisulfate | 100 | W (Medium and weak hits were defined as compounds giving a cell fluorescence signal that was between 2 and 3 or 1 and 2 standard deviations, respectively, above untreated control wells) | 1.3 |  |  |  |  | 
NC(=O)N1c2ccccc2C=Cc2ccccc21 [Carbamazenine] | 86 | W (Medium and weak hits were defined as compounds giving a cell fluorescence signal that was between 2 and 3 or 1 and 2 standard deviations, respectively, above untreated control wells) | 1.1 |  |  |  |  | 
CCOc1ccc2ccccc2c1C(=O)N[C@@H]1C(=O)N2[C@@H]1SC(C)(C)[C@@H]2C(=O)O [Nafcillin sodium salt monohydrate] |  |  |  | 97 |  | W 1.2 |  | 
CC(C)Cc1ccc([C@H](C)C(=O)O)cc1 [S-(+)-Ibuorofen] | 91 |  | 1.1 |  |  |  |  | 
Cyanocobalamin | 100 | W (Medium and weak hits were defined as compounds giving a cell fluorescence signal that was between 2 and 3 or 1 and 2 standard deviations, respectively, above untreated control wells) | 1.1 |  |  |  |  | not functional
O=C1CCC(N2C(=O)c3ccccc3C2=O)C(=O)N1 (centres unmarked) [Thalidomide] |  | M (Medium and weak hits were defined as compounds giving a cell fluorescence signal that was between 2 and 3 or 1 and 2 standard deviations, respectively, above untreated control wells) | 2.0 | 92 |  |  |  | 
CCn1cc(C(=O)O)c(=O)c2cc(F)c(N3CCNCC3)nc21 [Enoxacin] |  | W (Medium and weak hits were defined as compounds giving a cell fluorescence signal that was between 2 and 3 or 1 and 2 standard deviations, respectively, above untreated control wells) | 1.0 | 84 |  |  |  | 
